From patent US11970474B2, “Substituted benzodiazoles and use thereof in therapy” (THOMAS HELLEDAYS STIFTELSE FÖR MEDICINSK FORSKNING, priority 2018, dated 2024)
Read-outs that look alike come from different tables or passages of the source.

Key:
OGG1 = OGG1 (Homo sapiens (Human), UniProt O15527); experiment: In vitro OGG1 activity assay; type: biochemical; conditions: 800 pM OGG1 enzyme, 2 nM human APEX1, 10 nM 8-oxoA:C substrate
Summary of the method: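 Read-out is fluorescein fluorescence, with compounds in DMSO added first, then enzyme and substrate. OGG1 excises its substrate base from a quenched fluorophore-labelled duplex, and surplus APEX1 cuts the resulting apurinic site. The duplex then melts and fluorescence rises in proportion to glycosylase activity.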

MLE12 cells = experiment: Cell viability assay in MLE12 cells (resazurin); type: cell-based, mouse; conditions: TNF-α 20 ng/ml, resazurin added after 24 hours culture
Method: (§1) Stock solutions (10 mM in DMSO) of compounds were dispensed in V-bottom 384-well plates and the following dilutions were prepared: 10 mM and 0.05 mM. The dilutions were transferred to the source plate. Duplicate 6 points dose-response curves of compounds were nano-dispensed in cell plates (CCL2 assay) and in parallel, 11 points DR curves in duplicates were nano-dispensed for the viability assay. The plates were heat sealed and kept at RT until use.
(§2) MLE12 cells in flasks were washed once with PBS, detached with Trypsin/EDTA, resuspended in fresh medium and counted. Cells were diluted to 3×10^5 cells/ml and seeded with Multidrop Combi in cell plates pre-dispensed with compounds, 25 μl/well (7500 cells/well). The plates were placed, one by one, in a CO2-incubator at 37° C. for 1 hour after which 25 μl/well of TNF-α (final concentration 20 ng/ml) were added. The plates were transferred back to the CO2-incubator placed in a plastic box with wet tissue in the bottom, to avoid evaporation, for 30 hours.
After 24 hours culture, resazurin reagent (stock 1 mg/ml in PBS) diluted 1:17 in PBS was added with Multidrop Combi, 10 μl/well, and plates were incubated for 6 hours. Plates were read in Sense plate reader with resorufin protocol (ex544 nm/em595 nm). The results were imported to an excel template where the EC50 values were calculated using XLfit.

CCL2 = experiment: Mouse CCL2 assay in MLE12 cells; type: cell-based
Description: Cisbio mouse CCL2 assay is intended for the quantitative measurement of CCL2 in supernatant using HTRF® technology. The assay is compatible with mouse samples, and is highly specific for CCL2. CCL2 is detected in a sandwich assay format using 2 different specific antibodies, one labeled with Cryptate (donor) and the second with d2 (acceptor). The detection principle is based on HTRF® technology. When the labelled antibodies bind to the same antigen, the excitation of the donor with a light source (laser or flash lamp) triggers a Fluorescence Resonance Energy Transfer (FRET) towards the acceptor, which in turn fluoresces at a specific wavelength (665 nm). The two antibodies bind to the CCL2 present in the sample, thereby generating FRET. Signal intensity is proportional to the number of antigen-antibody complexes formed and therefore to the CCL2 concentration. • Materials: • Cells: MLE12 (Mouse Lung Epithelial cells, SV40 transformed) • Medium: DMEM/F12 (Gibco #11330057), FBS 5% (Gibco #10500064), Pen/Strep 50 U/50 μg/ml (Gibco #15070063) • Cell plates: 384-well, black/clear, TC-treated (Corning #3764) • Source plate: Labcyte LDV 384 (Labcyte #LP-0200) • Compound dilution plate: V-bottom 384-well PP plate (Greiner #781280) • Compounds: 10 mM stocks in DMSO • HTRF plates: 384-well, white, half area, non-binding (Costar #3824) • Mouse CCL2 kit: Cisbio 62MCCL2PEH • Other reagents: Trypsin/EDTA 10× (Gibco #15400054), PBS (Gibco #14190169), Resazurin (Sigma-Aldrich #199303), 1 mg/ml in PBS, TNF-α 200 μg/ml in PBS (Peprotech #300-01A) • Instruments: • Echo liquid handler (Labcyte) • Multidrop Combi (Thermo Scientific) • Sense plate reader (Hidex) Compound Handling:
as §1, §2
After 30 hours incubation, the plates were spun down 5 minutes at 400 g, and 16 μl/well of the supernatants were transferred to the assay plate. A mCCL2 standard curve was prepared according to the kit protocol and 16 μl/well of the standards were also added to the assay plate.
The anti-CCL2 antibody mix was prepared according to the kit protocol, and 4 μl/well were added to the assay plate. The plate was sealed and incubated over night at RT. After incubation the plate was read in Sense plate reader with Time-resolved FRET protocol (Ex330 nm/Em 620 and 665 nm). After data reduction, the delta ratios were imported to an excel template where the IC50 values were calculated.

[1] = Mus musculus, MLE12, 30 h, MLE12 cells, TNF-α 20 ng/ml, supernatant after 30 hours, HTRF, read-out: CCL2 (EC50)
[2] = Mus musculus, MLE12, 30 h, read-out: CCL2 (EC50, nM)

OGG1, sequence (O15527 whole entry): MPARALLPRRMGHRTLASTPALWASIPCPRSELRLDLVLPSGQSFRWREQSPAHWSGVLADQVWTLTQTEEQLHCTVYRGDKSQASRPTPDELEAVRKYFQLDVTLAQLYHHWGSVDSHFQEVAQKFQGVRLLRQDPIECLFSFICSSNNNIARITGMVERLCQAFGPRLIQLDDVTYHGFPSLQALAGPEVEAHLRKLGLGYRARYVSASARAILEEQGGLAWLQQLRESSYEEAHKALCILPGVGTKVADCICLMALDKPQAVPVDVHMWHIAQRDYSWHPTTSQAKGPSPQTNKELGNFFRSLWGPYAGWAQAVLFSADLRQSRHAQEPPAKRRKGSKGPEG

COc1cc(NC(=O)N2CCC(n3c(=O)[nH]c4c(-c5ccc(CO)nc5)cccc43)CC2)ccc1Cl [Example 83, N-(4-Chloro-3-methoxyphenyl)-4-{4-[6-(hydroxymethyl)pyridin-3-yl]-2-oxo-2,3-dihydro-1H-1,3-benzodiazol-1-yl}piperidine-1-carboxamide]
IC50 (OGG1): 0.958 µM
IC50 (MLE12 cells; Mus musculus, MLE12, 24 h): 14 µM
EC50 (CCL2; [1]): 34700 nM

Cc1cc(NC(=O)N2C3CCC2CC(n2c(=O)[nH]c4c(Br)cccc42)C3)ccc1I (stereo not drawn) [Example 84, 3-(4-Bromo-2-oxo-2,3-dihydro-1H-1,3-benzodiazol-1-yl)-N-(4-iodo-3-methylphenyl)-(endo)-8-azabicyclo[3.2.1]octane-8-carboxamide]
IC50 (OGG1): 0.03 µM
IC50 (MLE12 cells; Mus musculus): 8.14 µM
EC50 (CCL2; [2]): 23900 nM

COc1cc(NC(=O)N2C3CCC2CC(n2c(=O)[nH]c4c(Br)cccc42)C3)ccc1C (stereo not drawn) [Example 85, 3-(4-Bromo-2-oxo-2,3-dihydro-1H-1,3-benzodiazol-1-yl)-N-(3-methoxy-4-methylphenyl)-(endo)-8-azabicyclo[3.2.1]octane-8-carboxamide]
IC50 (OGG1): 0.033 µM
IC50 (MLE12 cells; Mus musculus): 17.2 µM
EC50 (CCL2; [2]): 39200 nM

O=C(Nc1ccc(Cl)c(F)c1)N1C2CCC1CC(n1c(=O)[nH]c3c(Br)cccc31)C2 (stereo not drawn) [Example 86, 3-(4-Bromo-2-oxo-2,3-dihydro-1H-1,3-benzodiazol-1-yl)-N-(4-chloro-3-fluorophenyl)-(endo)-8-azabicyclo[3.2.1]octane-8-carboxamide]
IC50 (OGG1): 0.059 µM
IC50 (MLE12 cells; Mus musculus): 13.7 µM
EC50 (CCL2; [2]): 19400 nM

CCNC(=O)c1cnn(-c2cccc3c2[nH]c(=O)n3C2CCN(C(=O)Nc3ccc(I)cc3)CC2)c1 [Example 87, 4-{4-[4-(Ethylcarbamoyl)-1H-pyrazol-1-yl]-2-oxo-2,3-dihydro-1H-1,3-benzodiazol-1-yl}-N-(4-iodophenyl)piperidine-1-carboxamide]
IC50 (OGG1): 0.471 µM
IC50 (MLE12 cells; Mus musculus, MLE12, 24 h): 5.25 µM
EC50 (CCL2; [1]): 6480 nM

CN(C)CCNC(=O)c1cnn(-c2cccc3c2[nH]c(=O)n3C2CCN(C(=O)Nc3ccc(I)cc3)CC2)c1 [Example 89, 4-(4-(4-((2-(Dimethylamino)ethyl)carbamoyl)-1H-pyrazol-1-yl)-2-oxo-2,3-dihydro-1H-benzo[d]imidazol-1-yl)-N-(4-iodophenyl)piperidine-1-carboxamide 2,2,2-trifluoroacetate]
IC50 (OGG1): 0.09 µM
IC50 (MLE12 cells; Mus musculus, MLE12, 24 h): 25.1 µM
EC50 (CCL2; [1]): 47100 nM

Cc1cc(NC(=O)N2C3CCC2CC(n2c(=O)[nH]c4c(-c5ccc(CO)nc5)cccc42)C3)ccc1I (stereo not drawn) [Example 91, 3-{4-[6-(Hydroxymethyl)pyridin-3-yl]-2-oxo-2,3-dihydro-1H-1,3-benzodiazol-1-yl}-N-(4-iodo-3-methylphenyl)-(endo)-8-azabicyclo[3.2.1]octane-8-carboxamide]
IC50 (OGG1): 0.058 µM
IC50 (MLE12 cells; Mus musculus, MLE12, 24 h): 6.45 µM
EC50 (CCL2; [1]): 12600 nM

COc1cc(NC(=O)N2C3CCC2CC(n2c(=O)[nH]c4c(-c5ccc(CO)nc5)cccc42)C3)ccc1C (stereo not drawn) [Example 92, 3-{4-[6-(Hydroxymethyl)pyridin-3-yl]-2-oxo-2,3-dihydro-1H-1,3-benzodiazol-1-yl}-N-(3-methoxy-4-methylphenyl)-(endo)-8-azabicyclo[3.2.1]octane-8-carboxamide]
IC50 (OGG1): 0.084 µM
IC50 (MLE12 cells; Mus musculus, MLE12, 24 h): 13.7 µM
EC50 (CCL2; [1]): 38800 nM

COc1cc(NC(=O)N2C3CCC2CC(n2c(=O)[nH]c4c(-c5ccc(CO)nc5)cccc42)C3)ccc1Cl (stereo not drawn) [Example 93, N-(4-chloro-3-methoxyphenyl)-3-{4-[6-(hydroxymethyl)pyridin-3-yl]-2-oxo-2,3-dihydro-1H-1,3-benzodiazol-1-yl}-(endo)-8-azabicyclo[3.2.1]octane-8-carboxamide]
IC50 (OGG1): 0.091 µM
IC50 (MLE12 cells; Mus musculus, MLE12, 24 h): 21.3 µM
EC50 (CCL2; [1]): 34900 nM

O=C(Nc1ccc(Cl)c(F)c1)N1C2CCC1CC(n1c(=O)[nH]c3c(-c4ccc(CO)nc4)cccc31)C2 (stereo not drawn) [Example 94, N-(4-chloro-3-fluorophenyl)-3-{4-[6-(hydroxymethyl)pyridin-3-yl]-2-oxo-2,3-dihydro-1H-1,3-benzodiazol-1-yl}-(endo)-8-azabicyclo[3.2.1]octane-8-carboxamide]
IC50 (OGG1): 0.105 µM
IC50 (MLE12 cells; Mus musculus, MLE12, 24 h): 8.45 µM
EC50 (CCL2; [1]): 20200 nM

COc1cc(NC(=O)[C@H]2CC[C@@H](n3c(=O)[nH]c4c(Br)cccc43)CC2)ccc1C [Example 107, (Cis)-4-(4-bromo-2-oxo-2,3-dihydro-1H-1,3-benzodiazol-1-yl)-N-(3-methoxy-4-methylphenyl)cyclohexane-1-carboxamide]
IC50 (OGG1): 0.023 µM
IC50 (MLE12 cells; Mus musculus, MLE12, 24 h): 7.41 µM
IC50 (MLE12 cells): 7.4 µM
EC50 (CCL2; MLE12 cells, TNF-α 20 ng/ml, supernatant after 30 hours, HTRF, read-out: CCL2 (EC50)): 16700 nM
EC50 (CCL2; [1]): 15600 nM

COc1cc(NC(=O)N2CCC(n3c(=O)[nH]c4c(-n5cccn5)cccc43)CC2)ccc1C [Example 117, N-(3-methoxy-4-methylphenyl)-4-[2-oxo-4-(1H-pyrazol-1-yl)-2,3-dihydro-1H-1,3-benzodiazol-1-yl]piperidine-1-carboxamide]
IC50 (OGG1): 1.36 µM
IC50 (MLE12 cells; Mus musculus, MLE12, 24 h): 14.4 µM
EC50 (CCL2; [1]): 65200 nM

O=c1[nH]c2c(Br)cccc2n1[C@H]1CC[C@@H](C(=O)Nc2ccc(Cl)c(Cl)c2)CC1 [Example 118, (Cis)-4-(4-bromo-2-oxo-2,3-dihydro-1H-1,3-benzodiazol-1-yl)-N-(3,4-dichlorophenyl)cyclohexane-1-carboxamide]
IC50 (OGG1): 0.234 µM
IC50 (MLE12 cells; Mus musculus, MLE12, 24 h): 5.39 µM
EC50 (CCL2; [1]): 16700 nM

O=c1[nH]c2c(Br)cccc2n1[C@H]1CC[C@@H](C(=O)Nc2ccc(Cl)cc2)CC1 [Example 119, (Cis)-4-(4-bromo-2-oxo-2,3-dihydro-1H-1,3-benzodiazol-1-yl)-N-(4-chlorophenyl)cyclohexane-1-carboxamide]
IC50 (OGG1): 0.072 µM
IC50 (MLE12 cells; Mus musculus, MLE12, 24 h): 5.07 µM
EC50 (CCL2; [1]): 17700 nM

COc1cc(NC(=O)[C@H]2CC[C@@H](n3c(=O)[nH]c4c(Br)cccc43)CC2)ccc1Cl [Example 122, (Cis)-4-(4-bromo-2-oxo-2,3-dihydro-1H-1,3-benzodiazol-1-yl)-N-(4-chloro-3-methoxyphenyl)cyclohexane-1-carboxamide]
IC50 (OGG1): 0.071 µM
IC50 (MLE12 cells; Mus musculus, MLE12, 24 h): 4.5 µM
EC50 (CCL2; [1]): 14100 nM

COc1ccc(NC(=O)[C@H]2CC[C@@H](n3c(=O)[nH]c4c(Br)cccc43)CC2)cc1Cl [Example 123, (Cis)-4-(4-bromo-2-oxo-2,3-dihydro-1H-1,3-benzodiazol-1-yl)-N-(3-chloro-4-methoxyphenyl)cyclohexane-1-carboxamide]
IC50 (OGG1): 0.026 µM
IC50 (MLE12 cells; Mus musculus, MLE12, 24 h): 10 µM
EC50 (CCL2; [1]): 24200 nM

COc1ccc(NC(=O)[C@H]2CC[C@@H](n3c(=O)[nH]c4c(Br)cccc43)CC2)cc1C [Example 126, (Cis)-4-(4-bromo-2-oxo-2,3-dihydro-1H-1,3-benzodiazol-1-yl)-N-(4-methoxy-3-methylphenyl)cyclohexane-1-carboxamide]
IC50 (OGG1): 0.012 µM
IC50 (MLE12 cells; Mus musculus, MLE12, 24 h): 15.7 µM
EC50 (CCL2; [1]): 26500 nM
